Reference: patent US5278187A, “Pharmaceutical compositions” (British Technology Group Ltd., priority 1985, dated 1994)
Converted amounts (≈) assume the structure as drawn. Like-named read-outs stand apart in the source and are kept apart here.

How the values were obtained:
[1] = system: human mammary epithelial tumor cells (MCF7); experiment: Cytotoxic effect on MCF7 cells, colony formation in culture; format: cell-based; conditions: dose required to reduce by 50% the number of colonies, 37° C., 12-14 days, read-out: ID50 MCF7
Procedure: (§1) (A) The cytotoxic effects of a variety of compounds of formula (II) on human adenocarcinoma cells of the colon (LOVO) and human mammary epithelial tumor cells (MCF7) grown in culture were studied. A range of doses of the drugs was added on day one to replicate cultures of several hundred cells each, which were then incubated at 37° C. for 12-14 days. The cultures were then fixed and stained and the numbers of colonies per dish counted. The results obtained are shown in Table 1, the individual compounds being identified by the groups R1, R2 and R3 present therein, the last mentioned compound being the compound of formula (I) having R1 =H and R2 =CH3 which is used as a control. The results are expressed in terms of the ID50 which is the dose required to reduce by 50% the number of colonies growing up in the drug-treated cultures compared with untreated controls.

[2] = system: human adenocarcinoma cells of the colon (LOVO); experiment: Cytotoxic effect on LOVO cells, colony formation in culture; format: cell-based; conditions: dose required to reduce by 50% the number of colonies, 37° C., 12-14 days, read-out: ID50 LOVO
Procedure: as §1

[3] = Water solubility; format: physicochemical
Excerpt: By modification of the nature of the ester groups it is possible to alter the water solubility, lipophilicity and rate of conversion to the active cytotoxic molecules (I). […] Similarly, increased lipophilicity may be obtained in these prodrugs by the introduction of, for example, hydrocarbon groupings such as isobutyl or benzyl and this is reflected by the relatively high Rf values in a 50% v/v chloroform/ethanol/SiO2 thin layer chromatography system as recorded in the Examples given hereinafter. An increased lipophilicity favours better absorption and changes in tissue distribution such as greater penetration of the central nervous system. The more lipophilic products are also the most attractive candidates for the percutaneous treatment of psoriasis. Further, depending upon whether R3 is an electron-withdrawing group, for example benzyl, propargyl or carbethoxymethyl, or an electron-repelling group, for example isobutyl, hydroxyethyl or methoxyethyl, the rate of conversion of the compound (II) to the corresponding compound (I) can be speeded up or slowed down. Thus, by providing some control over the water solubility, lipophilicity and rate of generation of the active species, the prodrug compounds of the present invention provide the ability to modify the tissue distribution and pharmacodynamics of the dioxopiperazine drugs with consequential therapeutic benefit to the patient.

[4] = Incubation under physiological conditions: formation of (I) from the 14C-labelled dimethyl ester and hydrolysis of the diimide (HPLC); format: physicochemical; conditions: pH 7.2, 37° C.
Procedure: (B) The rate of formation of the active antitumor agent (I) having R1 […] R2 =H from the corresponding ^14 C-labelled dimethyl ester (II) (R1 =R2 =H, R3 =CH3) following incubation under physiologically conditions, i.e. at 37° C. and pH and 7.2 in normal (0.15M) phosphate buffered saline [Practical Immunology, Hudson and hay (editors), Blackwell Scientific Publications, Second Edition, 1980, page 336] was studied. Sample of the incubation mixture were fractionated at different time intervals using HPLC with a reverse phase ODS column and an aqueous methanol gradient elution system.

[5] = Absorption by mouth; format: in vivo; conditions: oral; in words
[6] = esters corresponding to the diimide (I) in which R1 =R2 =H, read-out: water solubilities

SMILES | IC50 [1] [µM] | IC50 [2] [µM] | also measured
CC(CN(CC(N)=O)CC(=O)OCc1ccccc1)N(CC(N)=O)CC(=O)OCc1ccccc1 (racemic) [R1=CH3, R2=H, R3=CH2 C6 H5, dl-NN'-Dibenzyloxycarbonylmethyl-NN'-diaminocarbonylmethyl-1,2-diaminopropane] | 22 | 17 | 
CC(CN(CC(N)=O)CC(=O)OCc1ccccc1[N+](=O)[O-])N(CC(N)=O)CC(=O)OCc1ccccc1[N+](=O)[O-] (racemic) [R1=CH3, R2=H, R3=o-NO2 --CH2 C6 H5, dl-NN'-Di-o-nitrobenzyloxycarbonylmethyl)-NN'-diaminocarbonylmethyl-1,2-diaminopropane] | 16 | 11 | 
CC(CN(CC(N)=O)CC(=O)OCc1ccc([N+](=O)[O-])cc1)N(CC(N)=O)CC(=O)OCc1ccc([N+](=O)[O-])cc1 (racemic) [R1=CH3, R2=H, R3=p-NO2 --CH2 C6 H5, dl-NN'-Di-p-nitrobenzyloxycarbonylmethyl-NN'-diaminocarbonylmethyl-1,2-diaminopropane] | 21 | 14 | 
C[C@H]([C@H](C)N(CC(N)=O)CC(=O)OCC(=O)O)N(CC(N)=O)CC(=O)OCC(=O)O [R1=CH3, R2=CH3, R3=CH2 CO2 H, meso-NN'-Di-(carboxymethyloxycarbonylmethyl)-NN'-diaminocarbonylmethyl-2,3-diaminobutane] | 1.1 | 0.2 | 
CC(CN1CC(=O)NC(=O)C1)N1CC(=O)NC(=O)C1 (stereo not drawn) [R1=CH3, R2=H, cyclic imide, reference compound] | 17 | 18 | 
CCCCOCCOC(=O)CN(CCN(CC(N)=O)CC(=O)OCCOCCCC)CC(N)=O [R1=H, R2=H, R3=CH2 CH2 O(CH2)3 CH3, NN'-Di-(2-n-butoxyethoxy)carbonylmethyl-NN'-diaminocarbonylmethyl-1,2-diaminoethane] | 36 | 47 | 
NC(=O)CN(CCN(CC(N)=O)CC(=O)OCCO)CC(=O)OCCO [R1=H, R2=H, R3=CH2 CH2 OH, NN'-Di-(2-hydroxyethoxy)carbonylmethyl-NN'-diaminocarbonylmethyl-1,2-diaminoethane] |  |  | solubility [3, 6]: > 20 mg/mL
CC(C)COC(=O)CN(CCN(CC(N)=O)CC(=O)OCC(C)C)CC(N)=O [R1=H, R2=H, R3=CH2 CH(CH3)2, NN'-Di-isobutoxycarbonylmethyl-NN'-diaminocarbonylmethyl-1,2-diaminoethane] | 121 | 103 | 
NC(=O)CN(CCN(CC(N)=O)CC(=O)OCC(=O)O)CC(=O)OCC(=O)O [R1=H, R2=H, R3=CH2 CO2 H, NN'-Di-(carboxymethyloxycarbonylmethyl)-NN'-diaminocarbonylmethyl-1,2-diamonoethane] | 46 | 67 | 
COC(=O)CN(CCN(CC(N)=O)CC(=O)OC)CC(N)=O [R1=H, R2=H, R3=CH3, NN'-Dimethoxycarbonylmethyl-NN'-diaminocarbonylmethyl-1,2-diaminoethane] | 39 | 28 | formation of the active cytotoxic species (I) by cyclisation of the bis-ester ([4]; 0.15M phosphate buffered saline, the Figure, in words): leads to a sustained concentration of the active cytotoxic species; solubility [3, 6]: > 20 mg/mL
O=C1CN(CCN2CC(=O)NC(=O)C2)CC(=O)N1 [diimide (I) R1=R2=H, 1,2-bis-(3,5-dioxopiperazin-1-yl)ethane, reference compound] |  |  | absorption by mouth [5]: not being well absorbed by mouth; half-life ([4]; normal (0.15M) phosphate buffered saline, read-out: half life (hydrolysis to an inactive form) (converted)): ~12 h; solubility ([3]; 20° C., pH 7.2, read-out: water solubility): ~0.1 mg/mL (≈ 0.393 mM)
